This note sets out measurements from patent US7906657B2 (Merck Patent Gesellschaft MIT Beschraenkter Haftung, priority 2006, dated 2011).

The target of this assay is T1, Recombinant human HSP90α (Homo sapiens, UniProt P07900).
T1 construct: host or cells: E. coli
Description: radioligand filter binding test with [3H]17AAG (HSP90 inhibition). The note with it: competition with [3H]17AAG 0.08 μM; HSP90 1.5 μg/assay; 22° C., 30 min. An excerpt:
Test Method for the Measurement of HSP90 Inhibitors
The binding of geldanamycin or 17- allylamino-17-demethoxygeldanamycin (17AAG) to HSP90 and competitive inhibition thereof can be utilised in order to determine the inhibitory activity of the compounds according to the invention (Carreras et al. 2003, Chiosis et al. 2002).
In the specific case, a radioligand filter binding test is used. The radio-ligand used here is tritium-labelled 17-allylaminogeldanamycin, [3H]17AAG. This filter binding test allows a targeted search for inhibitors which interfere with the ATP binding site.
Recombinant human HSP90α (E. coli expressed, 95% purity);
[3H]17AAG (17-allylaminogeldanamycin, [allylamino-2,3-^3H. Specific activity: 1.11×10^12 Bq/mmol (Moravek, MT-1717);
HEPES filter buffer (50 mM HEPES, pH 7.0, 5 mM MgCl2, BSA 0.01%) Multiscreen FB (1 μm) filter plate (Millipore, MAFBNOB 50).
The 96-well microtitre filter plates are firstly irrigated and coated with 0.1% of polyethylenimine.
The test is carried out under the following conditions:
Reaction temperature 22° C.
Reaction time: 30 min., shaking at 800 rpm
50 mM HEPES HCI, pH 7.0, 5 mM MgCl2, 0.01% (w/v) BSA
At the end of the reaction, the supernatant in the filter plate is removed by suction with the aid of a vacuum manifold (Multiscreen Separation System, Millipore), and the filter is washed twice.
The filter plates are then measured in a beta counter (Microbeta, Wallac) with scintillator (Microscint 20, Packard).
“% of control” is determined from the “counts per minutes” values and the IC-50 value of a compound is calculated therefrom.

Structures are written as SMILES.

On to `Cc1ccccc1-n1nccc1-c1cc(C(=O)N(C)Cc2cccc(F)c2)c(O)cc1O` [Compound A7, 5-{5-[N-(3-Fluorobenzyl)-N-methylaminocarbonyl]-2,4-dihydroxyphenyl}-1-(2-methylphenyl)-1H-pyrazole], for which the 50% inhibitory concentration (IC50) (usually the point on the concentration scale where inhibition reaches its midpoint) worked out at 0.03 µM.

For `CN(Cc1ccccn1)C(=O)c1cc(-c2ccnn2-c2ccccc2Cl)c(O)cc1O` [Compound A60, 5-{5-[N-(Pyridin-2-ylmethyl)-N-methylaminocarbonyl]-2,4-dihydroxyphenyl}-1-(2-chlorophenyl)-1H-pyrazole], the 50% inhibitory concentration (IC50) was 0.16 µM.

Turning to `Cc1ccc(CN(C)C(=O)c2cc(-c3ccnn3-c3ccccc3C)c(O)cc2O)c(C)c1` [Compound A24, 5-{5-[N-(2,4-Dimethylbenzyl)-N-methylaminocarbonyl]-2,4-dihydroxyphenyl}-1-(2-methylphenyl)-1H-pyrazole], the IC50 amounted to 0.02 µM.

`COc1ccc(CN(C)C(=O)c2cc(-c3ccnn3-c3ccccc3C)c(O)cc2O)c(OC)c1` [Compound A31, 5-{5-[N-(2,4-Dimethoxybenzyl)-N-methylaminocarbonyl]-2,4-dihydroxyphenyl}-1-(2-methylphenyl)-1H-pyrazole]: the IC50 came out at 0.32 µM.

With `Cc1ccccc1-n1nccc1-c1cc(C(=O)N(C)Cc2ccc(F)cc2)c(O)cc1O` [Compound A5, 5-{5-[N-(4-Fluorobenzyl)-N-methylaminocarbonyl]-2,4-dihydroxyphenyl}-1-(2-methylphenyl)-1H-pyrazole], the IC50 worked out at 0.043 µM.

For the compound `Cc1ccccc1-n1nccc1-c1cc(C(=O)N(C)Cc2ccc(Cl)cc2Cl)c(O)cc1O` [Compound A35, 5-{5-[N-(2,4-Dichlorobenzyl)-N-methylaminocarbonyl]-2,4-dihydroxyphenyl}-1-(2-methylphenyl)-1H-pyrazole], the half-maximal inhibitory concentration (IC50) was 0.22 µM.

`COc1ccc(Cl)cc1CN(C)C(=O)c1cc(-c2ccnn2-c2ccccc2C)c(O)cc1O` [Compound A32, 5-{5-[N-(3-Chloro-6-methoxybenzyl)-N-methylaminocarbonyl]-2,4-dihydroxyphenyl}-1-(2-methylphenyl)-1H-pyrazole]: the IC50 is 0.052 µM.

On to `Cc1ccccc1CN(C)C(=O)c1cc(-c2ccnn2-c2ccccc2C)c(O)cc1O` [Compound A23, 5-{5-[N-(2-Methylbenzyl)-N-methylaminocarbonyl]-2,4-dihydroxyphenyl}-1-(2-methylphenyl)-1H-pyrazole], for which the IC50 was 0.027 µM.

On to `Cc1ccccc1-n1nccc1-c1cc(C(=O)N(C)Cc2ccccc2F)c(O)cc1O` [Compound A6, 5-{5-[N-(2-Fluorobenzyl)-N-methylaminocarbonyl]-2,4-dihydroxyphenyl}-1-(2-methylphenyl)-1H-pyrazole], for which the half-inhibitory concentration (IC50) was determined as 0.054 µM.

For `CN(Cc1ccccc1)C(=O)c1cc(-c2ccnn2-c2ccccc2Cl)c(O)cc1O` [Compound A2, 5-[5-(N-Benzyl-N-methylaminocarbonyl)-2,4-dihydroxyphenyl]-1-(2-chlorophenyl)-1H-pyrazole], the IC50 was determined as 0.044 µM.

Take `Cc1ccccc1-n1nccc1-c1cc(C(=O)N(C)Cc2cccc(Br)c2)c(O)cc1O` [Compound A20, 5-{5-[N-(3-Bromobenzyl)-N-methylaminocarbonyl]-2,4-dihydroxyphenyl}-1-(2-methylphenyl)-1H-pyrazole]: the IC50 was 0.031 µM.

With `Cc1ccccc1-n1nccc1-c1cc(C(=O)N(C)Cc2ccc3c(c2)OCO3)c(O)cc1O` [Compound A25], the IC50 worked out at 0.054 µM.

Regarding `Cc1ccccc1-n1nccc1-c1cc(C(=O)N(C)Cc2ccccc2)c(O)cc1O` [Compound A17, 5-[5-(N-Benzyl-N-methylaminocarbonyl)-2,4-dihydroxyphenyl]-1-(2-methylphenyl)-1H-pyrazole], the IC50 came to 0.033 µM.

`COc1ccccc1CN(C)C(=O)c1cc(-c2ccnn2-c2ccccc2C)c(O)cc1O` [Compound A9, 5-{5-[N-(2-Methoxybenzyl)-N-methylaminocarbonyl]-2,4-dihydroxyphenyl}-1-(2-methylphenyl)-1H-pyrazole]: the IC50 was found to be 0.04 µM.

As for `Cc1ccccc1-n1nccc1-c1cc(C(=O)N(C)Cc2c(F)cccc2Cl)c(O)cc1O` [Compound A30, 5-{5-[N-(2-Chloro-6-fluorobenzyl)-N-methylaminocarbonyl]-2,4-dihydroxyphenyl}-1-(2-methylphenyl)-1H-pyrazole], the IC50 was found to be 0.026 µM.
